# Values of other authors in patent US20180305742A1, “USE OF ESTROGENIC COMPOUNDS TO […] BACTERIAL COMPOSITION OF VAGINAL COMMUNITIES” (University of Idaho, priority 2017, published 2018).
# Test system: estrogen receptor
smiles,measurement,setting,value
"C[C@]12CC[C@@H]3c4ccc(O)cc4CC[C@H]3[C@@H]1C[C@@H](O)[C@@H]2O [Estriol, estriol]",potency relative to estradiol,as potent as estradiol,8%
same,potency relative to estrone,as potent as estrone,14%
